Literature values as cited in PubChem BioAssay AID1259409 (Chemical Carcinogenesis Research Information System (CCRIS), 2018).

Test system: rodent chemically induced tumor inhibition, incidence and multiplicity
Assay: CCRIS tumor inhibitor studies
Settings: Promoter: NONE USED

Structure (SMILES): O=C1O[C@H]([C@@H](O)CO)C(O)=C1O
- tumour outcome (control, treated, inhibition, significance) (Carcinogen: N-METHYL-N-NITROSOUREA, 684-93-5, Dose [Inhibitor]: 1% IN 20% FAT DIET DAILY STARTING 2 WK BEFORE START OF CARCINOGEN TREATMENT AND CONTINUING FOR DURATION OF STUDY (STUDY, Route [Inhibitor]: ORAL, Species: RAT, Strain/Sex: F344/FEMALE, Target Tissue: Type of Lesion: MAMMARY GLAND: FIBROADENOMA, Dose [Carcinogen]: 2 MG 2/WK FOR 2 WK): 25%, 38%, -52%, not significant
- tumour outcome (control, treated, inhibition, significance) (Carcinogen: N-NITROSOMORPHOLINE, 59-89-2, Dose [Inhibitor]: 22.7 G/KG OF DIET 5 D/WK FOR 2 YR STARTING SIMULTANEOUSLY WITH CARCINOGEN TREATMENT AT 8 WK OF AGE AND CONTINUING FOR DU, Route [Inhibitor]: ORAL, Species: RAT, Strain/Sex: MRC/MALE, Target Tissue: Type of Lesion: FORESTOMACH: SQUAMOUS CELL PAPILLOMA, SQUAMOUS CELL CARCINOMA, Dose [Carcinogen]: 0.15 G/L DRINKING WATER 5 D/WK FOR 2 YR): 1/41 (2%), 4/47 (9%), -350%, not calculated
- tumour outcome (control, treated, inhibition, significance) (Carcinogen: N-NITROSOMORPHOLINE, 59-89-2, Dose [Inhibitor]: 22.7 G/KG OF DIET 5 D/WK FOR 2 YR STARTING SIMULTANEOUSLY WITH CARCINOGEN TREATMENT AT 8 WK OF AGE AND CONTINUING FOR DU, Route [Inhibitor]: ORAL, Species: RAT, Strain/Sex: MRC/MALE, Target Tissue: Type of Lesion: LIVER: KUPFFER CELL SARCOMA, Dose [Carcinogen]: 0.15 G/L DRINKING WATER 5 D/WK FOR 2 YR): 28/41 (68%), 34/47 (72%), -6%, not calculated
- tumour outcome (control, treated, inhibition, significance) (Carcinogen: N-NITROSOMORPHOLINE, 59-89-2, Dose [Inhibitor]: 22.7 G/KG OF DIET 5 D/WK FOR 2 YR STARTING SIMULTANEOUSLY WITH CARCINOGEN TREATMENT AT 8 WK OF AGE AND CONTINUING FOR DU, Route [Inhibitor]: ORAL, Species: RAT, Strain/Sex: MRC/MALE, Target Tissue: Type of Lesion: LIVER: LIVER CELL CARCINOMA, Dose [Carcinogen]: 0.15 G/L DRINKING WATER 5 D/WK FOR 2 YR): 17/41 (41%), 20/47 (43%), -5%, not calculated
- tumour outcome (control, treated, inhibition, significance) (Carcinogen: TRANS-5-AMINO-3-[2-(5-NITRO-2-FURYL)VINYL]-1,2,4-OXADIAZOLE;SQL8506, 28754-68-9, Carcinogen: TRANS-5-AMINO-3-[2-(5-NITRO-2-FURYL)VINYL]-1,2,4-OXADIAZOLE;SQL8506, 28754-68-9, Dose [Inhibitor]: 2 G/KG 16 HR BEFORE THE 1ST CARCINOGEN DOSE FOLLOWED BY ADDITIONAL DOSES IMMEDIATELY BEFORE EACH DOSE OF CARCINOGEN (STU, Route [Inhibitor]: INTRAPERITONEAL, Species: MOUSE, Strain/Sex: CD-1/FEMALE, Target Tissue: Type of Lesion: HEMATOPOIETIC SYSTEM: MYELOID LEUKEMIA, Dose [Carcinogen]: 1 G/KG 2/D FOR 5 D EVERY 4 WK FOR 3 COURSES OF TREATMENT): 7/137 (5%), 3/45 (7%), -40%, not calculated
- tumour outcome (control, treated, inhibition, significance) (Carcinogen: TRANS-5-AMINO-3-[2-(5-NITRO-2-FURYL)VINYL]-1,2,4-OXADIAZOLE;SQL8506, 28754-68-9, Carcinogen: TRANS-5-AMINO-3-[2-(5-NITRO-2-FURYL)VINYL]-1,2,4-OXADIAZOLE;SQL8506, 28754-68-9, Dose [Inhibitor]: 2 G/KG 16 HR BEFORE THE 1ST CARCINOGEN DOSE FOLLOWED BY ADDITIONAL DOSES IMMEDIATELY BEFORE EACH DOSE OF CARCINOGEN (STU, Route [Inhibitor]: INTRAPERITONEAL, Species: MOUSE, Strain/Sex: CD-1/FEMALE, Target Tissue: Type of Lesion: LYMPHOID TISSUE: NONTHYMIC LYMPHOMA, Dose [Carcinogen]: 1 G/KG 2/D FOR 5 D EVERY 4 WK FOR 3 COURSES OF TREATMENT): 8/137 (6%), 2/45 (4%), 33%, not calculated
- tumour outcome (control, treated, inhibition, significance) (Carcinogen: TRANS-5-AMINO-3-[2-(5-NITRO-2-FURYL)VINYL]-1,2,4-OXADIAZOLE;SQL8506, 28754-68-9, Carcinogen: TRANS-5-AMINO-3-[2-(5-NITRO-2-FURYL)VINYL]-1,2,4-OXADIAZOLE;SQL8506, 28754-68-9, Dose [Inhibitor]: 2 G/KG 16 HR BEFORE THE 1ST CARCINOGEN DOSE FOLLOWED BY ADDITIONAL DOSES IMMEDIATELY BEFORE EACH DOSE OF CARCINOGEN (STU, Route [Inhibitor]: INTRAPERITONEAL, Species: MOUSE, Strain/Sex: CD-1/FEMALE, Target Tissue: Type of Lesion: LYMPHOID TISSUE: THYMIC LYMPHOMA, Dose [Carcinogen]: 1 G/KG 2/D FOR 5 D EVERY 4 WK FOR 3 COURSES OF TREATMENT): 22/137 (16%), 7/45 (16%), 0%, not calculated
- tumour outcome (control, treated, inhibition, significance) (Carcinogen: TRANS-5-AMINO-3-[2-(5-NITRO-2-FURYL)VINYL]-1,2,4-OXADIAZOLE;SQL8506, 28754-68-9, Carcinogen: TRANS-5-AMINO-3-[2-(5-NITRO-2-FURYL)VINYL]-1,2,4-OXADIAZOLE;SQL8506, 28754-68-9, Dose [Inhibitor]: 2 G/KG 16 HR BEFORE THE 1ST CARCINOGEN DOSE FOLLOWED BY ADDITIONAL DOSES IMMEDIATELY BEFORE EACH DOSE OF CARCINOGEN (STU, Route [Inhibitor]: INTRAPERITONEAL, Species: MOUSE, Strain/Sex: CD-1/FEMALE, Target Tissue: Type of Lesion: STOMACH: SQUAMOUS CARCINOMA, Dose [Carcinogen]: 1 G/KG 2/D FOR 5 D EVERY 4 WK FOR 3 COURSES OF TREATMENT): 60/137 (44%), 14/45 (31%), 30%, not calculated
- tumour outcome (control, treated, inhibition, significance) (Carcinogen: UV IRRADIATION, Dose [Inhibitor]: 0.3% IN DIET BEGINNING 10 D PRIOR TO CARCINOGEN DOSE AND CONTINUING FOR DURATION OF STUDY (STUDY DURATION: 27 WK), Route [Inhibitor]: ORAL, Species: MOUSE, Strain/Sex: SKH/HRL/FEMALE, Target Tissue: Type of Lesion: SKIN: CARCINOMA OR PAPILLOMA, Dose [Carcinogen]: 1.13 J/CM2/D INCREASED EVERY 2 WK TO A FINAL VALUE OF 1.97 J/CM2/D 5 D/WK FOR 15 WK (TOTAL EXPOSURE: 135 J/CM2)): 23/44 (52%), 24/39 (62%), -19%, not calculated
- tumour outcome (control, treated, inhibition, significance) (Carcinogen: UV IRRADIATION, Dose [Inhibitor]: 5% IN DIET BEGINNING 10 D PRIOR TO CARCINOGEN DOSE AND CONTINUING FOR DURATION OF STUDY (STUDY DURATION: 27 WK), Route [Inhibitor]: ORAL, Species: MOUSE, Strain/Sex: SKH/HRL/FEMALE, Target Tissue: Type of Lesion: SKIN: PAPILLOMA OR CARCINOMA, Dose [Carcinogen]: 1.13 J/CM2/D INCREASED EVERY 2 WK TO A FINAL VALUE OF 1.97 J/CM2/D 5 D/WK FOR 15 WK (TOTAL EXPOSURE: 135 J/CM2)): 23/44 (52%), 15/38 (39%), 25%, not calculated
- tumour outcome (control, treated, inhibition, significance) (Carcinogen: UV IRRADIATION, Dose [Inhibitor]: 10% IN DIET BEGINNING 10 D PRIOR TO CARCINOGEN DOSE AND CONTINUING FOR DURATION OF STUDY (STUDY DURATION: 27 WK), Route [Inhibitor]: ORAL, Species: MOUSE, Strain/Sex: SKH/HRL/FEMALE, Target Tissue: Type of Lesion: SKIN: PAPILLOMA OR CARCINOMA, Dose [Carcinogen]: 1.13 J/CM2/D INCREASED EVERY 2 WK TO A FINAL VALUE OF 1.97 J/CM2/D 5 D/WK FOR 15 WK (TOTAL EXPOSURE: 135 J/CM2)): 23/44 (52%), 14/40 (35%), 33%, not calculated
- outcome (Dose [Inhibitor]: 22.7 G/KG OF DIET 5 D/WK FOR 2 YR STARTING SIMULTANEOUSLY WITH CARCINOGEN TREATMENT AT 8 WK OF AGE AND CONTINUING FOR DU, Route [Inhibitor]: ORAL, Species: RAT, Strain/Sex: MRC/MALE, Target Tissue: Type of Lesion: FORESTOMACH: SQUAMOUS CELL PAPILLOMA, SQUAMOUS CELL CARCINOMA): 0/37 (0%), 21/39 (54%), not calculated
- tumour outcome (control, treated, inhibition, significance) (Dose [Inhibitor]: 22.7 G/KG OF DIET 5 D/WK FOR 2 YR STARTING SIMULTANEOUSLY WITH CARCINOGEN TREATMENT AT 8 WK OF AGE AND CONTINUING FOR DU, Route [Inhibitor]: ORAL, Species: RAT, Strain/Sex: MRC/MALE, Target Tissue: Type of Lesion: LIVER: KUPFFER CELL SARCOMA): 13/37 (35%), 7/39 (18%), 49%, not significant
- tumour outcome (control, treated, inhibition, significance) (Dose [Inhibitor]: 22.7 G/KG OF DIET 5 D/WK FOR 2 YR STARTING SIMULTANEOUSLY WITH CARCINOGEN TREATMENT AT 8 WK OF AGE AND CONTINUING FOR DU, Route [Inhibitor]: ORAL, Species: RAT, Strain/Sex: MRC/MALE, Target Tissue: Type of Lesion: LIVER: LIVER CELL CARCINOMA): 12/37 (32%), 10/39 (26%), 19%, not significant
